# Reference: US20250002471A1 (Gilead Sciences, Inc., priority 2020, published 2025)
# Columns and labels:
# TLR7 = molecular target: T1, TLR7 (Homo sapiens, UniProt Q9NYK1); assay: Human PBMC cell-based assay, TLR7 agonist GS-986 stimulation, cytokine (IL-6 and IFNα) readout; details: human PBMCs, GS-986 400 nM, 6 hours; Table 26; read-out: TLR-7 EC50
# T1 construct: lymphocytes, monocytes and dendritic cells that express TLR7, TLR8 and TLR9; endogenous in cells; host or cells: human PBMCs from healthy donors
# T1 sequence (Q9NYK1 27-1049): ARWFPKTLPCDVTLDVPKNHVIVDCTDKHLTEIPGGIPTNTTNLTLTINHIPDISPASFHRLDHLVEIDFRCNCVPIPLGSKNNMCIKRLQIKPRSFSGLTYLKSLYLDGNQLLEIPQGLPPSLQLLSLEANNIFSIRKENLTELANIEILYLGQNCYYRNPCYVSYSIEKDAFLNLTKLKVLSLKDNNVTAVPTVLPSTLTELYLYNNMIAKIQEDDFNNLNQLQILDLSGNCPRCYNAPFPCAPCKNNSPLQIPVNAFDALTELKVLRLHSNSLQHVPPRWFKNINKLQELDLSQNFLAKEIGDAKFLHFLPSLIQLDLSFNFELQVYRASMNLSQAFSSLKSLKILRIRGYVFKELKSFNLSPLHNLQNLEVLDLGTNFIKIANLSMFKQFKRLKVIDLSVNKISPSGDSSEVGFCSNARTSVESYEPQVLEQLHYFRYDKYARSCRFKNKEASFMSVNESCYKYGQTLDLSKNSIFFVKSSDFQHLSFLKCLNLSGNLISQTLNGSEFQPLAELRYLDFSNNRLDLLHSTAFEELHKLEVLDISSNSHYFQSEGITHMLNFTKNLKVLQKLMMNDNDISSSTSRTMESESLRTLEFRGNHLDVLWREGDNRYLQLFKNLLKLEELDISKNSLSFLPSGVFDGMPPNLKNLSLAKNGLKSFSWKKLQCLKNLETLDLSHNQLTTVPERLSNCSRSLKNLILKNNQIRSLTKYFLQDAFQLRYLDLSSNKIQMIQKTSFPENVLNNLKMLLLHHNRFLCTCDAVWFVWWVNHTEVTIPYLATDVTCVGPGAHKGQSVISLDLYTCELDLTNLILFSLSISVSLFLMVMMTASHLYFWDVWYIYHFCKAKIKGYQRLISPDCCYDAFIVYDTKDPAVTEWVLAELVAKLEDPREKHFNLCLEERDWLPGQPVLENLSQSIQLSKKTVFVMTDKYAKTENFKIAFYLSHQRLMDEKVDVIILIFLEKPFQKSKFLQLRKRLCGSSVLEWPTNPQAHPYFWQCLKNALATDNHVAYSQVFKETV
# Text: (§1) Human peripheral blood mononuclear cells (PBMCs) consist of lymphocytes, monocytes and dendritic cells that express TLR7, TLR8 and TLR9. These cells respond to TLR7, TLR8 and TLR9 ligand stimulation and produce cytokines and chemokines in vitro and in vivo. Human PBMCs are therefore suitable to be used in a cell-based assay to assess the in vitro potency of a TLR 7, 8, and/or 9 antagonist. The result is expected to be more translatable to the pharmacodynamics response in vivo than cell line-based assays.
# (§2) Cryopreserved human PBMCs from healthy donors were thawed and resuspended in RPMI-1640 media with L-glutamine (Corning) supplemented with 10% Fetal Bovine Serum (Hyclone) and 1X Penicillin-Streptomycin (Corning). After counting, the cell density was adjusted to 2 million cells/ml and incubated for 1 hour at 37° C., 5% CO2 for recovery. Following the recovery, the cells were plated by adding 50p per well (100,000 cells) to 384-well cell culture plates (Greiner) containing 250nl of test antagonists in 100% DMSO per well, in a 10 points dose response in quadruplicates. PBMCs were incubated in the presence of test antagonists for one hour at 37° C., 5% CO2 before being stimulated with a TLR7 or TLR9 agonist. GS-986 (Gilead Sciences) was used as the TLR7 agonist at a final concentration of 400 nM. ODN-2216 (InvivoGen) was used as the TLR9 agonist at a final concentration of 3μM. PBMCs were incubated in the presence of the test antagonist and the TLR7 (or TLR9) agonist for an additional 6 hours at 37° C., 5% CO2. At the end of the incubation, the cell culture plates were centrifuged at 500 g for 5 min, and the cell culture supernatant was collected. The level of cytokines (IL-6 and IFNα) in the supernatant was measured by electrochemiluminescence immunoassays (Mesoscale Discovery) following manufacturer's recommended protocols. The level of cytokine measured was plotted against the test antagonist concentration and fitted to a sigmoidal function to determine the EC50, which are shown below in Table 26.
# TLR9 = molecular target: T2, TLR9 (Homo sapiens, UniProt Q9NR96); assay: Human PBMC cell-based assay, TLR9 agonist ODN-2216 stimulation, cytokine (IL-6 and IFNα) readout; details: human PBMCs, ODN-2216 3 μM, 6 hours; Table 26; read-out: TLR-9 EC50
# T2 construct: lymphocytes, monocytes and dendritic cells that express TLR7, TLR8 and TLR9; endogenous in cells; host or cells: human PBMCs from healthy donors
# T2 sequence (Q9NR96 26-1032): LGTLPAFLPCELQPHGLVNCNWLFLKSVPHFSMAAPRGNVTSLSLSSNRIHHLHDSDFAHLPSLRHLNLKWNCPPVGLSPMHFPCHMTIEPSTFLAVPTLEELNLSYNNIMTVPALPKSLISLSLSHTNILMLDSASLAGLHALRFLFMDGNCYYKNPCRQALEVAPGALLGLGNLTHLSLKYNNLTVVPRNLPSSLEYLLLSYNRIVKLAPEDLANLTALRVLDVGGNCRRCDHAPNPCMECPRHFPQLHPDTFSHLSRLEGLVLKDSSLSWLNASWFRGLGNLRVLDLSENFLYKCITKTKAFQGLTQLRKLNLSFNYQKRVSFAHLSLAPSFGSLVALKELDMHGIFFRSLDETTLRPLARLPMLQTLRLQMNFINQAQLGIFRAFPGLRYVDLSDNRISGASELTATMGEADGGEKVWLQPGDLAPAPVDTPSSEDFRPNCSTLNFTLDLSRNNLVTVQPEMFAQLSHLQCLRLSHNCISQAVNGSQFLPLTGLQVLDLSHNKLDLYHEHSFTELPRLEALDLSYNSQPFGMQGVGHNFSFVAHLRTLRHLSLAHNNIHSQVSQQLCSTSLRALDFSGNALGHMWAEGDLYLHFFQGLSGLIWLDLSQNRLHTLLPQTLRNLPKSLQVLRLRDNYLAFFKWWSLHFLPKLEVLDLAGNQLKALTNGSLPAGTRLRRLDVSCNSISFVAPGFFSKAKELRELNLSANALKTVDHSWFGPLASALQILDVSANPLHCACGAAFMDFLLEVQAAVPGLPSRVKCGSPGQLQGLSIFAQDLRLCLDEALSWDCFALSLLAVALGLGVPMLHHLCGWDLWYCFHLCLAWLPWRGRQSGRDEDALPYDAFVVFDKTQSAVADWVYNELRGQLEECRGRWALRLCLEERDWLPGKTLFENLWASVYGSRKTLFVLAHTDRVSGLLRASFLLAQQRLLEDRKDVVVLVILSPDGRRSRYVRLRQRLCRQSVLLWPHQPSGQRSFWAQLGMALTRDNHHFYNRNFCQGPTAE
# Text: as §1, §2
SMILES,EC50 (TLR7),EC50 (TLR9)
Cc1c(-c2cc(C#N)c(=O)n(C)c2)[nH]c2cc(-c3ccc(N4CCNCC4)nc3)ccc12 [Example 93],205 nM,909 nM
Cc1cc(-c2[nH]c3cc(-c4cnn(CCN)c4)ccc3c2C)cc(C)n1 [Example 16],254 nM,275 nM
Cc1c(-c2cnc(C(F)(F)F)nc2)[nH]c2cc(-c3ccc(N4CCNCC4)nc3)ccc12 [Example 83],778 nM,756 nM
Cc1cncc(-c2[nH]c3cc(-c4ccc(N5CCNCC5)nc4)ccc3c2C)c1C [Example 86],2670 nM,1430 nM
Cc1c(-c2cn(C)c(=O)c3ccccc23)[nH]c2cc(-c3ccc(N4CCNCC4)nc3)ccc12 [Example 92],664 nM,1680 nM
Cc1cc(-c2[nH]c3cc(-c4cccc(C(=O)N5CCC(N)CC5)c4)ccc3c2C)cc(C)n1 [Example 122],226 nM,87.2 nM
Cc1cc(-c2[nH]c3cc(C4CCNC4)ccc3c2C)cc(C)n1 (stereo not shown) [Example 54],1390 nM,69.4 nM
Cc1cc(-c2[nH]c3cc(-c4ccn5ncnc5c4)ccc3c2C)cc(C)n1 [Example 58],373 nM,1130 nM
Cc1cc(-c2[nH]c3cc(-c4cnc5[nH]c(C)nc5c4)ccc3c2C)cc(C)n1 [Example 45],331 nM,621 nM
Cc1cc(-c2[nH]c3nc(-c4ccc(N5CCNCC5)nc4)ccc3c2C)cc(C)n1 [Example 150],760 nM,72.3 nM
Cc1ncc(-c2[nH]c3cc(-c4ccc(N5CCNCC5)nc4)ccc3c2C)cn1 [Example 82],503 nM,489 nM
Cc1cc(-c2[nH]c3cc(-c4cccc(C(=O)N5CC6CNCC6C5)c4)ccc3c2C)cc(C)n1 (stereo not shown) [Example 123],374 nM,274 nM
Cc1cc(-c2[nH]c3cc(-c4ccc(N5CCN(C6COC6)CC5)nc4)ccc3c2C)cc(C)n1 [Example 38],273 nM,382 nM

# Compounds with a lower EC50 (TLR7), results first:
EC50 (TLR7),EC50 (TLR9),SMILES
119 nM,88.5 nM,Cc1cc(-c2[nH]c3cc(-c4ccc5c(c4)CC(N)C5)ccc3c2C)cc(C)n1 (stereo not shown) [Example 20]
154 nM,227 nM,Cc1cc(-c2[nH]c3cc(-c4ccc(N)nc4)ccc3c2C)cc(C)n1 [Example 5]
15.3 nM,35.5 nM,Cc1cc(-c2[nH]c3cc(-c4ccc(N5CCN(C(=O)[C@H]6CCCN6C)CC5)nc4)ccc3c2C)cc(C)n1 [Example 109]
8.3 nM,89.6 nM,Cc1cc(-c2[nH]c3cc(-c4ccc(NC5CCNCC5)nc4)ccc3c2C)cc(C)n1 [Example 24]
171 nM,469 nM,"Cc1cc(-c2[nH]c3cc(-c4ccc5c(c4)[nH]c(=O)n5C4CCNCC4)ccc3c2C)cc(C)n1 [Example 187, 6-[2-(2,6-dimethyl-4-pyridyl)-3-methyl-1H-indol-6-yl]-3-(4-piperidyl)-1H-benzimidazol-2-one]"
104 nM,540 nM,Cc1c(-c2cn(C)c(=O)n(C)c2=O)[nH]c2cc(-c3ccc(N4CCNCC4)nc3)ccc12 [Example 91]
63 nM,421 nM,Cc1cc(-c2[nH]c3cc(-c4ccc(N5CCNCC5)nc4)ccc3c2C)cnn1 [Example 76]
102 nM,288 nM,"Cc1c(-c2ccc(=O)n(C)c2)[nH]c2cc(-c3ccc(N4CCNCC4)nc3)ccc12 [Example 95, 1-methyl-5-(3-methyl-6-(6-(piperazin-1-yl)pyridin-3-yl)-1H-indol-2-yl)pyridin-2(1H)-one]"
4.8 nM,189 nM,"Cc1cc(-c2[nH]c3cc(-c4ccc(N5CCNCC5)nc4)ccc3c2C2CC2)cc(C)n1 [Example 63, 3-cyclopropyl-2-(2,6-dimethylpyridin-4-yl)-6-(6-(piperazin-1-yl)pyridin-3-yl)-1H-indole]"
15.3 nM,63.2 nM,Cc1cc(-c2[nH]c3cc(-c4cnc(N5CCNCC5)nc4)ccc3c2C)cc(C)n1 [Example 65]
146 nM,83.3 nM,Cc1cc(-c2[nH]c3cc(-c4ccc(C(=O)N5CCN6CCC5C6)cc4)ccc3c2C)cc(C)n1 (stereo not shown) [Example 128]
103 nM,47.3 nM,Cc1cc(-c2[nH]c3cc(-c4cccc(C(=O)N5CCNCC5)c4)ccc3c2C)cc(C)n1 [Example 12]
163 nM,109 nM,Cc1cc(-c2[nH]c3cc(-c4cccc5c4CNC5)ccc3c2C)cc(C)n1 [Example 19]
22.8 nM,56.3 nM,Cc1cc(-c2[nH]c3cc(-c4cnc(N5CCNCC5)c(C)c4)ccc3c2C)cc(C)n1 [Example 3]
44.5 nM,32.1 nM,Cc1cc(-c2[nH]c3cc(-c4ccc(N5CCN(C(=O)[C@@H]6CCCN6C)CC5)nc4)ccc3c2C)cc(C)n1 [Example 108]
77.3 nM,499 nM,Cc1c(-c2ccnc(C#N)c2)[nH]c2cc(-c3ccc(N4CCNCC4)nc3)ccc12 [Example 75]
37.4 nM,54.3 nM,"Cc1cc(-c2[nH]c3cc(-c4nc(N5CCNCC5)cs4)ccc3c2C)cc(C)n1 [Example 185, 2-(2-(2,6-dimethylpyridin-4-yl)-3-methyl-1H-indol-6-yl)-4-(piperazin-1-yl)thiazole]"
51 nM,79.9 nM,Cc1cc(-c2[nH]c3cc(-c4ccc(N5CC[C@H]6CNC[C@H]65)nc4)ccc3c2C)cc(C)n1 [Example 33]
32.2 nM,63.6 nM,Cc1cc(-c2[nH]c3cc(-c4ccc(N5CCN(C(=O)[C@@H]6COCCN6)CC5)nc4)ccc3c2C)cc(C)n1 [Example 110]
